Measurements reported in PMC8421526, “Cell-Penetrating Peptides Predicted From CASC3, AKIP1, and AHRR Proteins” (Frontiers in Pharmacology, 2021).
Entries after “also recorded” stand apart in the source; their conditions may differ. Like-named read-outs stand apart in the source and are kept apart here.

Legend:
HeLa cells = assay: Internalization of fluorescently labelled peptide, confocal microscopy of live cells; assay type: cell-based, human; settings: 4 h; for Fluorescence signal from the peptide in confocal images: fluorescently labelled peptide 10 µM, Hoechst counterstain, 20x; for Entry into cells in confocal images: fluorescently labelled peptide 20 µM, Supplementary Figure S2
Experimental: 48 h prior to the addition of […], 20,000 HeLa cells were seeded on 8-well Nunc™ Lab-Tek™ (Thermo Scientific™, United States) chamber plates. Before the addition of the peptide solutions media was changed to 225 µl of fresh media. […] After 4 h incubation, the cells were washed with PBS and counterstained with Hoechst 33342. Confocal images were acquired from live cells with Zeiss LSM710 (Carl Zeiss AG, Germany). For detecting the fluorescent label from the peptide, 488 nm laser with […] was used, and for detecting nuclei 405 nm laser with 416–503 filter was used. The images were taken with 20x magnification.

U87, PC3, and HeLa cells [1] = assay: Percentage of fluorescent cells after peptide treatment, flow cytometry; assay type: cell-based, human; settings: FAM-labelled peptide 10 µM, 2 h, serum free media, trypan blue quenching, Figure 1B; for Percentage of the fluorescent positive cells: threshold set with untreated cells
Experimental: U87 (human glioblastoma like cells) and HeLa (human cervical cancer) were maintained at 37°C and 5% CO2 in Dulbecco’s Modified Eagle’s Medium (DMEM) (Sigma, Germany). PC3 (human prostate cancer) and CHO cells were maintained in Ham´S F12 media and incubated at 37°C and 5% CO2. Cell media were supplemented with 0.1 mM non-essential amino acids, 1.0 mM sodium pyruvate, 10% fetal bovine serum (FBS) (Sigma, Germany), 100°U ml^−1 penicillin, and […] streptomycin (Invitrogen, Sweden). U87 cell dishes were treated with 0.1% gelatin solution prior to addition of cells and media. The percentage of the fluorescent cells after peptide treatment was assessed using flow cytometry. For flow cytometry, 10,000 cells were seeded on a 96-well plate 1 day prior to the experiment. On the experiment day, the cell media was changed to 90 µl of fresh serum free media followed by the addition of 10 µl of the fluorescently labelled peptide solution. The peptide’s final concentration on the cells was 10 µM. The cells were incubated with the peptides for 2 h, following washes with PBS buffer. 0.25% Trypsin-EDTA was added to detach the cells from the plate and 200 µl of PBS mixed with 1% FBS was added. Shortly before the analysis, 50 µl of 0.4% trypan blue was added to quench the fluorescence outside the cells. The fluorescence detected from the untreated cells was used to set the signal threshold. The results are shown as the percentage of the fluorescent positive cells.

U87 cells [2] = settings: for 2-Way ANOVA, MTS assay, treatment group compared to untreated: Table S4 C; for Proliferation in MTS assay compared to the CPP Tat treated group: same concentration of Tat, statistically significant
Experimental: (§1) The cell proliferation was analyzed with the CellTiter 96® Aqueous Non-Radioactive Cell Proliferation Assay (MTS) (Promega Biotech AB, Sweden) according to the manufacturer’s instructions. For this, 10,000 U87 or CHO cells were seeded 1 day prior to the experiment on transparent 96-well plates. On the experiment day, media was replaced with 90 μl of fresh serum free media. Peptides in the concentration range from 0 to 32 µM were added to the cells. The cells were incubated with the peptides for 20 h or 46 h, following the addition of the reagent and further incubation to reach 24 h or 48 h timepoints. The absorbance of the formazan product was measured at 490 nm with Tecan Sunrise microplate absorbance reader (Tecan Group Ltd., Switzerland) and the percentage of viable cells was calculated using the GraphPad Prism software 5.0 (GraphPad Software, CA, United States).

U87, PC3, and HeLa cells [3] = assay: Internalization of FAM-labelled peptides, fluorescence from cell lysate; assay type: cell-based, human; settings: FAM-labelled peptide 10 µM, 2 h, serum free media, lysis 0.1% Triton X100; cannot distinguish internalized from membrane-attached peptide; Figure 1A
Experimental: U87 (human glioblastoma like cells) and HeLa (human cervical cancer) were maintained at 37°C and 5% CO2 in Dulbecco’s Modified Eagle’s Medium (DMEM) (Sigma, Germany). PC3 (human prostate cancer) and CHO cells were maintained in Ham´S F12 media and incubated at 37°C and 5% CO2. Cell media were supplemented with 0.1 mM non-essential amino acids, 1.0 mM sodium pyruvate, 10% fetal bovine serum (FBS) (Sigma, Germany), 100°U ml^−1 penicillin, and […] streptomycin (Invitrogen, Sweden). U87 cell dishes were treated with 0.1% gelatin solution prior to addition of cells and media. For assessing the internalization of the peptides from the cell lysate, 50,000 cells were seeded on a 24-well plate 1 day prior to the experiment. On the experiment day, cell media was changed to 450 µl of fresh serum free media followed by the addition of 50 µl of fluorescently labelled peptide solution. The peptide’s final concentration on the cells was 10 µM. The cells were incubated with the peptides for 2 h, following washes with PBS buffer and cell lysis with 100 µl of 0.1% Triton X100. The cell lysate was transferred to black 96-well plate and the fluorescence signal from the fluorescently labelled peptide was measured.

U87 cells [4] = assay: Total DNA from cell lysate (PicoGreen dsDNA assay); assay type: cell-based, human; settings: 5 µM peptide, 48 h, normalized to untreated cells, average of three wells
Experimental: Total DNA was measured from U87 cells 48 h after the addition of the peptide solutions. After the incubation, the cells were washed with PBS and lysed as described above. From the cell lysate, DNA was quantified with Quant-iT™ PicoGreen™ dsDNA Assay Kit. The results are shown as the average of measurements from three wells and normalized to untreated cells.

CHO cells = settings: serum free media, 8 and 32 µM, average of three independent wells
Experimental: as §1

[5] = Figure 3 24 h, peptide added 0.5 µM
[6] = Figure 3 24 h, peptide added 2 µM
[7] = Figure 3 24 h, peptide added 8 µM
[8] = Figure 3 24 h, peptide added 32 µM
[9] = Figure 3 48 h, peptide added 0.5 µM
[10] = Figure 3 48 h, peptide added 2 µM
[11] = Figure 3 48 h, peptide added 8 µM
[12] = Figure 3 48 h, peptide added 32 µM

Question: For “GECTYAGRKRRRPLQK [AHRR8-24, predicted CPP from Aryl hydrocarbon receptor repressor, C-terminally amidated]”, which “Fluorescence signal from the peptide in confocal images” value (HeLa cells) is on record?
Answer: Its value is “fluorescence signal from the peptides can be seen in the cells”.

Question: What about the “Percentage of the fluorescent positive cells” value (U87, PC3, and HeLa cells [1]) of the same sequence?
Answer: Its value is “more than 10%”.

Question: What about the “2-Way ANOVA, MTS assay, treatment group compared to untreated” value (“2-Way ANOVA … compared to untreated” below) (U87 cells [2]; [5]) of the same sequence?
Answer: Its value is “ns (P > 0.05 – ns)”.

Question: What about the “2-Way ANOVA … compared to untreated” value (U87 cells [2]; [6]) of the same sequence?
Answer: Its value is “* (p < 0.05 - *)”.

Question: And the “2-Way ANOVA … compared to untreated” value (U87 cells [2]; [7])?
Answer: Its value is “* (p < 0.05 - *)”.

Question: And the “2-Way ANOVA … compared to untreated” value (U87 cells [2]; [8])?
Answer: Its value is “** (p < 0.01 - **)”.

Question: And the “Proliferation in MTS assay compared to the CPP Tat treated group” value (U87 cells [2]; U87 cells, 0.5, 2, and 8 µM, 48 h)?
Answer: The value was “decrease in the proliferation”.

Question: What about the “Viability in MTS assay” value (U87 cells [2]; U87 cells, serum free media, after 48 h) of the same sequence?
Answer: Its value is “decreased viability”.

Question: And the “Fluorescence signal from the cell lysate (internalization)” value (U87, PC3, and HeLa cells [3])?
Answer: The value was “highest fluorescence intensities”.

Question: What does the source list for VLERAKRRAV [AKIP1_27-37]?
Answer: Fluorescence signal from the peptide in confocal images (HeLa cells): fluorescence signal from the peptides can be seen in the cells; Percentage of the fluorescent positive cells (U87, PC3, and HeLa cells [1]): more than 10%; 2-Way ANOVA, MTS assay, treatment group compared to untreated (U87 cells [2]; [5]): ns (P > 0.05 – ns); 2-Way ANOVA, MTS assay, treatment group compared to untreated (U87 cells [2]; [6]): * (p < 0.05 - *); 2-Way ANOVA, MTS assay, treatment group compared to untreated (U87 cells [2]; [7]): * (p < 0.05 - *); 2-Way ANOVA, MTS assay, treatment group compared to untreated (U87 cells [2]; [8]): * (p < 0.05 - *); 2-Way ANOVA, MTS assay, treatment group compared to untreated (U87 cells [2]; [9]): ns (P > 0.05 – ns); 2-Way ANOVA, MTS assay, treatment group compared to untreated (U87 cells [2]; [10]): * (p < 0.05 - *); 2-Way ANOVA, MTS assay, treatment group compared to untreated (U87 cells [2]; [11]): * (p < 0.05 - *); 2-Way ANOVA, MTS assay, treatment group compared to untreated (U87 cells [2]; [12]): ** (p < 0.01 - **); Fluorescence signal from the cell lysate (internalization) (U87, PC3, and HeLa cells [3]): highest fluorescence intensities; Amount of total DNA (U87 cells [4]): decreased amount of total DNA

Question: “NTKRRLEGAKKA [CCNL2_354-365, predicted CPP from Cyclin L2, C-terminally amidated]” was tested. Which “Fluorescent signal in flow cytometry (detectable or not)” value (U87, PC3, and HeLa cells [1]) did it give?
Answer: Its value is “all the peptides except the CCNL2, ING4, and FBXO32 derived peptides had a detectable signal”.

Question: What does the source list for “GRKKRRQRRRPPQ [Tat48-60, reference compound]”?
Answer: Fluorescence signal from the peptide in confocal images (HeLa cells): fluorescence signal from the peptides can be seen in the cells; Entry into cells in confocal images (HeLa cells): able to enter into almost all the cells; 2-Way ANOVA, MTS assay, treatment group compared to untreated (U87 cells [2]; [5]): ns (P > 0.05 – ns); 2-Way ANOVA, MTS assay, treatment group compared to untreated (U87 cells [2]; [6]): ns (P > 0.05 – ns); 2-Way ANOVA, MTS assay, treatment group compared to untreated (U87 cells [2]; [7]): ns (P > 0.05 – ns); 2-Way ANOVA, MTS assay, treatment group compared to untreated (U87 cells [2]; [8]): * (p < 0.05 - *); 2-Way ANOVA, MTS assay, treatment group compared to untreated (U87 cells [2]; [9]): ns (P > 0.05 – ns); 2-Way ANOVA, MTS assay, treatment group compared to untreated (U87 cells [2]; [10]): ns (P > 0.05 – ns); 2-Way ANOVA, MTS assay, treatment group compared to untreated (U87 cells [2]; [11]): * (p < 0.05 - *); 2-Way ANOVA, MTS assay, treatment group compared to untreated (U87 cells [2]; [12]): *** (p < 0.001 - ***); Toxicity in MTS assay (U87 cells [2]; U87 cells, serum free media, 0-32 µM, after 24 or 48 h): did not show a considerable amount of toxicity

Question: How did the “Fluorescence signal from the cell lysate (internalization)” value (U87, PC3, and HeLa cells [3]) turn out when “RKRRESASSSSSVKKAKKP [DMAP1_459-467, predicted CPP from DNA methyltransferase 1-associated protein 1, C-terminally amidated]” was run?
Answer: Its value is “above control”.

Question: With TQKEKKAARARSK [ING4_134-145] as the sequence, how does the “Fluorescent signal in flow cytometry (detectable or not)” value (U87, PC3, and HeLa cells [1]) read?
Answer: Its value is “all the peptides except the CCNL2, ING4, and FBXO32 derived peptides had a detectable signal”.

Question: What does the source list for “PDDIKPRRIRKPRY [CASC3_251-264, predicted CPP from CASC3, C-terminally amidated]”?
Answer: Fluorescence signal from the peptide in confocal images (HeLa cells): fluorescence signal from the peptides can be seen in the cells; also recorded: strongest and well dispersed signal; Entry into cells in confocal images (HeLa cells): able to enter into almost all the cells; Percentage of the fluorescent positive cells (U87, PC3, and HeLa cells [1]): more than 10%; Cell proliferation in MTS assay (CHO cells): proliferation decreased; 2-Way ANOVA, MTS assay, treatment group compared to untreated (U87 cells [2]; [5]): ** (p < 0.01 - **); 2-Way ANOVA, MTS assay, treatment group compared to untreated (U87 cells [2]; [6]): ** (p < 0.01 - **); 2-Way ANOVA, MTS assay, treatment group compared to untreated (U87 cells [2]; [7]): *** (p < 0.001 - ***); 2-Way ANOVA, MTS assay, treatment group compared to untreated (U87 cells [2]; [8]): *** (p < 0.001 - ***); 2-Way ANOVA, MTS assay, treatment group compared to untreated (U87 cells [2]; [9]): * (p < 0.05 - *); 2-Way ANOVA, MTS assay, treatment group compared to untreated (U87 cells [2]; [10]): * (p < 0.05 - *); 2-Way ANOVA, MTS assay, treatment group compared to untreated (U87 cells [2]; [11]): * (p < 0.05 - *); 2-Way ANOVA, MTS assay, treatment group compared to untreated (U87 cells [2]; [12]): *** (p < 0.001 - ***); Proliferation in MTS assay compared to the CPP Tat treated group (U87 cells [2]; U87 cells, 0.5 µM, 24 h): decrease in the proliferation; Cell proliferation in MTS assay (U87 cells [2]; U87 cells, serum free media, 8 and 32 µM): proliferation decreased; Fluorescence signal from the cell lysate (internalization) (U87, PC3, and HeLa cells [3]): highest fluorescence intensities

Question: With “VAAKKRKKDML [FBXO32_59-69, predicted CPP from F-box only protein 32, C-terminally amidated]” as the sequence, how does the “Fluorescent signal in flow cytometry (detectable or not)” value (U87, PC3, and HeLa cells [1]) read?
Answer: The value was “all the peptides except the CCNL2, ING4, and FBXO32 derived peptides had a detectable signal”.
